From PubChem BioAssay (NCI) come the findings set out here.

Holding throughout (assay): NCI-60 cell line screen, 48 h
The test system of experiment [1] is ACHN renal.
In experiment [2] the test system is KM12 colon.
Experiment [3] deals with SF-268 CNS.
In experiment [4] the test system is SK-MEL-28 melanoma.
Experiment [5] has as its system SK-MEL-5 melanoma.
Experiment [6] concerns UACC-62 melanoma.
Experiment [7] deals with UO-31 renal.
For experiment [8], the system named is LOX IMVI melanoma.
Experiment [9] concerns CCRF-CEM leukemia.

“And” between values parts separate entries of the source, which are not always exact repeats. Equal entries are not always repeated.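 Growth conditions: 96-well plates. Treatment: test compound, 48 hours, 5 concentrations. Analysis: linear interpolation between bracketing concentrations; unreached endpoints set to highest concentration. Here, GI50 denotes the concentration required for 50% inhibition of growth. Definition used: TGI = concentration required for complete inhibition of growth.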 Where only a bound is given, the exact number is not on record here.

On to `CCOC(=O)c1ccc(N2C(=O)Cc3ccccc3C2=O)cc1`, for which the TGI in [1], in experiment [2], in [3], in experiment [4], in [5] and in [6] was greater than 100 µM each time. For the same compound, the TGI in experiment [7] is greater than 100 µM.

In the case of `O=C1C(=O)N(c2nccs2)C(=O)C(=O)C1c1nc2ccccc2s1`, the TGI in experiment [1], in experiment [2], in [8], in experiment [3], in experiment [4] and in [6] was greater than 100 µM throughout. Also, the TGI in [7] is greater than 100 µM.

As to `Nc1nccc2c1ncn2C1OC(CO)C(O)C1O` (centres undefined), the GI50 in experiment [1] was greater than 100 µM; in experiment [9], greater than 100 µM; in experiment [2] it was 54.5 µM; in experiment [8], 94.1 µM; in experiment [3], 83.4 µM; in experiment [4], greater than 100 µM. Besides, the GI50 in experiment [5] is greater than 100 µM; in [6], greater than 100 µM; in experiment [7] it was 28.8 µM. The TGI in experiment [1], in [9], in experiment [2], in [8], in experiment [3] and in [4] was greater than 100 µM throughout. Also, the TGI in experiment [5], in experiment [6] and in experiment [7] was greater than 100 µM each time.

Take `CCN(CC)c1ccc(N=C2C=C(Cl)C(=O)c3ncccc32)c(C)c1`: the TGI in [1] was 11.1 µM; in experiment [9], greater than 100 µM; in [8], 26.9 µM; in [4], 91 µM; in experiment [5], 11.3 µM; in [6] it was 24.7 µM. Further, in experiment [7], the TGI amounted to 41.6 µM.

`COc1nc2c(nc(N)n2C2OCC(O)C(O)C2O)c(=O)n1C` (centres undefined): the TGI in [1], in experiment [9], in experiment [2], in [8], in experiment [3] and in experiment [4] was greater than 100 µM throughout. For the same compound, the TGI in experiment [5], in experiment [6] and in experiment [7] was greater than 100 µM throughout.

In the case of `O=C(Nc1ccc(Br)cc1)C(=O)C(C(=O)c1ccccc1F)C1OC(=O)c2ccccc21` (centres undefined), the TGI was greater than 100 µM in [1]; greater than 100 µM in experiment [9]; greater than 100 µM in experiment [2]; 44.9 µM in experiment [8]; 71.5 µM in experiment [3]; 50.2 µM in experiment [4]. Moreover, the TGI in experiment [5] is 87.1 µM; in experiment [6], 28.1 µM; in experiment [7] it was 56.6 µM.

As to `CC1(C(=O)O)CCOc2ccccc21` (centres undefined), the TGI in experiment [1], in experiment [9], in experiment [8], in experiment [3], in experiment [4] and in experiment [5] was greater than 100 µM each time. In addition, the TGI in experiment [6] and in [7] was greater than 100 µM each time.

For the compound `COc1cc(/C=C\c2ccc(Br)cc2)cc(OC)c1OC`, the TGI in experiment [1] was greater than 100 µM; in [9] it was 13.8 µM; in experiment [2] it was greater than 100 µM; in experiment [3], 54 µM; in experiment [5] it was 0.109 µM; in experiment [6] it was greater than 100 µM.

For `Cc1c(-c2nnc(-c3ccccc3)o2)c(=O)n(-c2ccccc2)n1C`, the TGI in experiment [1], in [9], in [2], in experiment [8], in [3] and in experiment [4] was greater than 100 µM throughout. In addition, the TGI in experiment [6] and in [7] was greater than 100 µM throughout.

Consider `N#Cc1ccc(Oc2cccc(Oc3ccccc3)c2)cc1C#N`, for which the TGI in experiment [1], in [9], in experiment [2], in [3], in experiment [4] and in experiment [5] was greater than 100 µM throughout. Moreover, the TGI in experiment [6] was greater than 100 µM; in [7] it was 61.6 µM. In addition, the GI50 in [2] and in experiment [6] was greater than 100 µM each time.

As to `COC12CCC(C(C(=O)c3ccccc3)=C1C(=O)c1ccccc1)C(O)C2` (centres undefined), the TGI in [9], in [2], in experiment [3], in experiment [4], in experiment [5] and in [6] was greater than 100 µM each time. Moreover, in [7], the TGI was greater than 100 µM.

On to `O=C(Nc1nc2ccc([N+](=O)[O-])cc2s1)C(=O)C(C(=O)c1ccncc1)C1OC(=O)c2ccccc21` (centres undefined), for which the TGI in experiment [1], in experiment [9], in experiment [2], in [3] and in experiment [6] was greater than 100 µM throughout.

Consider `CS/C(c1ccccc1)=[N+](\[O-])Cc1ccccc1`, for which the TGI in experiment [1] was greater than 100 µM; in experiment [9], greater than 100 µM; in [2], greater than 100 µM; in experiment [8] it was 31.6 µM; in experiment [3], greater than 100 µM; in [4], greater than 100 µM. Further, the TGI in experiment [5], in experiment [6] and in [7] was greater than 100 µM each time.

With `CC(NC(=O)C(=O)N/N=C1\C[C@@H](c2ccccc2)Nc2ccccc21)c1ccccc1` (some centres undefined), the TGI in experiment [1], in experiment [2], in experiment [8], in [3], in [4] and in experiment [7] was greater than 100 µM each time.

With `O=C(N/C(=C\c1ccc(/C=C(\NC(=O)c2ccccc2)c2nc3ccccc3s2)cc1)c1nc2ccccc2s1)c1ccccc1`, the TGI in [1] is 16.7 µM; in experiment [9] it was 5.28 µM; in experiment [2], 22.6 µM; in experiment [8], 13.3 µM; in [3], 21.1 µM; in experiment [4], 24.2 µM. The TGI in experiment [5] came out at 17.8 µM; in experiment [6], 12 µM; in experiment [7] it was 10.7 µM.

As to `O=C(O)c1ccccc1N=Nc1ccc2oc(=O)c(C(=O)Nc3ccccc3)cc2c1`, the TGI was greater than 100 µM in [1]; greater than 100 µM in [9]; greater than 100 µM in experiment [2]; greater than 100 µM in [8]; greater than 100 µM in [4]; 76.8 µM in experiment [5]. Also, the TGI in [6] is 71.1 µM; in experiment [7], greater than 100 µM.

Consider `CCOC(=O)C(C)(C)Oc1ccc2c(-c3ccc(Cl)cc3)c(-c3ccc(Cl)cc3)c(=O)oc2c1`, for which the TGI in experiment [1], in [9], in experiment [8], in experiment [3], in experiment [4] and in experiment [5] was greater than 100 µM throughout. The TGI in experiment [6] and in experiment [7] was greater than 100 µM throughout.

`OCC(O)C(O)C(O)c1nn(-c2ccccc2)c2nc3cc(Cl)c(Cl)cc3nc12` (centres undefined): the TGI in [1], in experiment [9], in experiment [8], in experiment [3], in [4] and in [6] was greater than 100 µM in each case. The compound further registered a TGI in experiment [7] greater than 100 µM.

Regarding `CS(=O)(=O)N(CCC#N)c1ccc(C=O)cc1`, the TGI in [1], in experiment [2], in experiment [8], in experiment [3], in experiment [4] and in experiment [5] was greater than 100 µM each time. The TGI in experiment [6] and in [7] was greater than 100 µM in each case.

With `O=C(NC1C2CC3CC(C2)CC1C3)/C(Cl)=C1/Sc2ccccc2NC1=O` (centres undefined), the TGI in experiment [1], in experiment [9], in experiment [2], in experiment [8], in experiment [3] and in experiment [4] was greater than 100 µM each time. Also, the TGI in experiment [5], in [6] and in experiment [7] was greater than 100 µM each time.

As to `CC1CCCc2c1c1ccc3c(O)cccc3c1oc2=O` (centres undefined), the TGI in experiment [1] is greater than 100 µM; in [9] it was greater than 100 µM; in experiment [2], greater than 100 µM; in [8], greater than 100 µM; in experiment [3] it was 70.8 µM; in experiment [4], greater than 100 µM. In addition, the TGI in experiment [6] and in [7] was greater than 100 µM throughout.

With `O=c1cccccc1[O-].O=c1cccccc1[O-].O=c1cccccc1[O-].[Ce+3]`, the TGI is 96.3 µM in experiment [1]; greater than 100 µM in experiment [9]; greater than 100 µM in experiment [2]; greater than 100 µM in [8]; 38.8 µM in [5]; 40.4 µM in [6]. Besides, in [7], the TGI was found to be 84.6 µM.

Regarding `COc1ccc2c(CCNC(=O)/C=C/c3ccccc3)c(C(C)=O)[nH]c2c1[N+](=O)[O-]`, the TGI in [1] is greater than 100 µM; in [9], greater than 100 µM; in experiment [2], greater than 100 µM; in experiment [8], 27.3 µM; in experiment [3], 9.08 µM; in experiment [4], greater than 100 µM. Further, the TGI was 36.1 µM in [6] and greater than 100 µM in experiment [7].

Take `CCOC(=O)N1C(c2ccccc2)C=CC(c2ccccc2)N1C(=O)OCC` (centres undefined): the TGI in experiment [1], in experiment [9], in [2], in [8], in [3] and in experiment [4] was greater than 100 µM each time. In addition, the TGI in experiment [5] and in experiment [6] was greater than 100 µM each time.

In the case of `Cc1ccccc1C(=O)Oc1ccc(OCc2ccccc2)cc1`, the TGI in experiment [1], in experiment [9], in [2], in experiment [8], in experiment [3] and in experiment [4] was greater than 100 µM each time. The TGI in [5], in experiment [6] and in [7] was greater than 100 µM in each case.

As to `Cn1c(=O)c(C(=O)NC(=O)NCCCCCOC(=O)CCCCCCCCCCC(=O)OCCCCCNC(=O)NC(=O)c2cn(Cc3ccccc3)c(=O)n(C)c2=O)cn(Cc2ccccc2)c1=O`, the TGI in [1], in [9], in experiment [2], in experiment [8], in [3] and in [4] was greater than 100 µM throughout. Further, the TGI in experiment [5], in [6] and in [7] was greater than 100 µM throughout.

`CC(=O)OC1CCC2C(=CCC3C2(C)C(=O)CC2(C)C(C4(C)OC(C(C)C)=CC4=O)C(O)CC32C)C1(C)C` (centres undefined): the TGI in [1] is greater than 100 µM; in experiment [9], 56.5 µM; in experiment [2] it was greater than 10 µM; in experiment [3], greater than 100 µM; in experiment [5], 56.9 µM; in experiment [6] it was 41.7 µM. The TGI in experiment [7] is greater than 100 µM.

In the case of `Cc1ccc(C=NC23CC4CC(CC(C4)C2)C3)cc1`, the TGI in experiment [1], in experiment [2], in experiment [8], in experiment [3], in [4] and in experiment [5] was greater than 100 µM in each case.

`CC(=O)[O-].[Zn].c1ccc(/C(=N\Nc2ccccn2)c2ccccn2)cc1`: the GI50 was 0.0241 µM in [1]; 0.32 µM in experiment [8]; 0.421 µM in [3]; 0.447 µM in [5]; 0.0476 µM in experiment [6]; 0.332 µM in [7]. Also, the TGI is 5.03 µM in experiment [1]; 0.22 µM and 1.22 µM in [9]; 1.59 µM in experiment [8]; 3.13 µM in experiment [3]; 1.59 µM in experiment [5]; 0.67 µM and 1.17 µM in experiment [6]. In addition, the TGI in [7] amounted to 16.5 µM.

Take `NCc1c(C(N)=O)ncn1Cc1ccccc1`: the TGI in experiment [1], in [9], in experiment [8], in experiment [4], in experiment [5] and in experiment [6] was greater than 100 µM in each case.

As for `C=C1CCCC2[C@](C)(CC3=C(O)C(=O)C=C(OC)C3=O)[C@@H](C)CC[C@]12C` (some centres undefined), the TGI was 47.7 µM in experiment [1]; 14.6 µM in experiment [9]; 17.4 µM in experiment [2]; greater than 100 µM in [8]; greater than 100 µM in experiment [3]; greater than 100 µM in experiment [4]. In addition, the TGI was found to be 9.35 µM in [5] and 6.63 µM in experiment [6].
